According to paper PMC8765781, “A platform of assays for the discovery of anti-Zika small-molecules with activity in a 3D-bioprinted outer-blood-retina model” (PLoS ONE, 2022):
Like-named read-outs stand apart in the source and are kept apart here.

What was measured:
[1] = test system: ZIKV-RLuc (Cambodian strain FSS13025); test: microbe, parasite or virus in culture; assay type: cell-based, Zika virus; conditions: for AC50: Zika virus, Vero
[2] = test system: Vero cells
[3] = read-out: Log AC50 (M) (converted)

| SMILES | CC-v2 (curve class classification v2 of the dose response curve) [1] | Efficacy (difference between neutral response and maximum compound response) [1] | Max Resp (difference between neutral response and compound response for highest compound concentration) [1] | AC50 [1] [M] | AC50 [1, 3] [M] | AC50 [2] [µM] | Log AC50 (M) [2] [M] |
| --- | --- | --- | --- | --- | --- | --- | --- |
| CCCCCCCCCCCC(CC1OC(=O)C1CCCCCC)OC(=O)C(CC(C)C)NC=O (centres unmarked) [NCGC00095128-04] | -2.1 | -95.825 | -91.668 | 2.93e-05 | 2.93e-05 | 29.3 | -4.5327 |
| O=C1Nc2ccc(Cl)cc2[C@@](C#CC2CC2)(C(F)(F)F)O1 [NCGC00159337-04] | -2.1 | -93.261 | -95.737 | 1.65e-05 | 1.65e-05 | 16.5 | -4.7827 |
| COc1cc([C@@H]2c3cc4c(cc3[C@H](O)[C@H]3COC(=O)[C@@H]23)OCO4)cc(OC)c1OC [NCGC00161923-04] | -1.2 | -67.755 | -62.284 | 2.93e-06 | 2.93e-06 | 2.93 | -5.5327 |
| CCC(=C/[C@H](C)C/C=C/C(C)=C/[C@@H](C)C(=O)[C@@H](C)[C@H](O)[C@@H](C)C/C(C)=C/C(=O)O)/C=C/[C@@H]1OC(=O)C=C[C@@H]1C [NCGC00162440-02] | -1.2 | -71.611 | -66.361 | 4.76e-09 | 4.76e-09 | 0.00476 | -8.3224 |
| CCCCCCCCOc1ccccc1C(=O)Nc1ccc(C(=O)OCC[N+](C)(CC)CC)cc1.[Br-] [NCGC00163507-03] | -2.4 | -66.096 | -65.496 | 2.08e-05 | 2.08e-05 | 20.8 | -4.6827 |
| CS[C@H]1SC[C@@H]2C(=O)N(C)[C@H](C(C)C)C(=O)OC[C@H](NC(=O)c3cnc4ccccc4n3)C(=O)N[C@H](C)C(=O)N(C)[C@H]1C(=O)N(C)[C@H](C(C)C)C(=O)OC[C@H](NC(=O)c1cnc3ccccc3n1)C(=O)N[C@H](C)C(=O)N2C [NCGC00163548-01] | -1.1 | -94.296 | -94.115 | 1.82e-06 | 1.82e-06 | 1.82 | -5.7408 |
| CC(=O)O[C@H]1C(=O)[C@@]2(C)[C@H]([C@H](OC(=O)c3ccccc3)[C@]3(O)C[C@H](OC(=O)[C@H](O)[C@@H](NC(=O)c4ccccc4)c4ccccc4)C(C)=C1C3(C)C)[C@]1(OC(C)=O)CO[C@@H]1C[C@@H]2O [NCGC00164367-10] | -1.2 | -44.84 | -48.24 | 1.39e-07 | 1.39e-07 | 0.139 | -6.8582 |
| CCN(CC)CCOc1ccc(C(=C(Cl)c2ccccc2)c2ccccc2)cc1 [NCGC00164385-05] | -2.1 | -102.171 | -98.776 | 2.33e-05 | 2.33e-05 | 23.3 | -4.6327 |
| C[C@@H]1C[C@H]2C3CCC4=CC(=O)C=C[C@@]4(C)[C@@]3(Cl)[C@@H](O)CC2(C)[C@@]1(OC(=O)c1ccco1)C(=O)CCl (some centres unmarked) [NCGC00164596-01] | -1.1 | -109.905 | -100.212 | 1.04e-05 | 1.04e-05 | 10.4 | -4.9827 |
| CCN(CC)CCNC(=O)c1c(C)[nH]c(/C=C2\C(=O)Nc3ccc(F)cc32)c1C [NCGC00164631-04] | -2.1 | -103.003 | -99.557 | 1.17e-05 | 1.17e-05 | 11.7 |  |
| O=c1[nH]c2ccccc2n1C1CCN(Cc2ccc(-c3nc4cc5nc[nH]c5cc4nc3-c3ccccc3)cc2)CC1 [NCGC00165727-01] | -2.1 | -80.197 | -82.143 | 1.65e-05 | 1.65e-05 | 16.5 | -4.7827 |
| CN(C)C1CCN(CCCOc2ccc(-c3ccc(C#N)cc3)cc2)C1 (centres unmarked) [NCGC00165730-02] | -3 | -68.814 | -57.023 | 3.69e-05 | 3.69e-05 | 36.9 | -4.4327 |
| COc1cc(C(C)C)c2c(c1)[S+](=O)([O-])N(COc1cc(=O)n3cccc(OCCN4CCCCC4)c3n1)C2=O [NCGC00167751-03] | -2.1 | -105.384 | -99.738 | 2.33e-05 | 2.33e-05 | 23.3 | -4.6327 |
| O=c1cc(-c2ccc(O)c(O)c2)oc2c(C3O[C@H](CO)[C@H](O)[C@H](O)[C@H]3O)c(O)cc(O)c12 (some centres unmarked) [NCGC00168934-02] | -2.1 | -106.691 | -100.564 | 1.85e-05 | 1.85e-05 | 18.5 | -4.7327 |
| C/C=C(\C)C(=O)O[C@H]1CC2C(=C1C)[C@H]1OC(=O)[C@](C)(O)[C@]1(O)[C@H](OC(=O)CCC)C[C@@]2(C)OC(C)=O (some centres unmarked) [NCGC00169033-03] | -1.1 | -98.201 | -99.812 | 2.29e-06 | 2.29e-06 |  | -5.6408 |
| CCCCC/C=C/C(=O)CCc1ccc(O)c(OC)c1 [NCGC00169591-02] | -2.1 | -87.809 | -86.687 | 1.85e-05 | 1.85e-05 | 18.5 | -4.7327 |
| CCCCN(CCCC)CCC(O)c1cc2c(Cl)cc(Cl)cc2c2cc(C(F)(F)F)ccc12 (centres unmarked) [NCGC00179250-04] | -2.2 | -95.793 | -79.925 | 2.93e-05 | 2.93e-05 | 29.3 | -4.5327 |
| C[C@@H]1C[C@H]2[C@@H]3CCC4=CC(=O)C=C[C@]4(C)[C@@]3(Cl)[C@@H](O)C[C@]2(C)[C@@]1(OC(=O)c1ccco1)C(=O)CCl [NCGC00179578-03] | -2.1 | -100.838 | -97.726 | 2.33e-05 | 2.33e-05 | 23.3 | -4.6327 |
| O=C(/C=C/c1ccccc1)CC(O)CCc1ccccc1 (centres unmarked) [NCGC00180705-02] | -2.2 | -46.506 | -73.055 | 2.33e-05 | 2.33e-05 | 23.3 | -4.6327 |
